Earlier results, collected in patent US20220409628A1, “18-MC FOR TREATING OBESITY” (Mind Medicine, Inc., priority 2021, published 2022).

Columns and labels:
[1] = U.S. Pat. No. 6,780,871 to Glick, et al.
[2] = in vivo
[3] = system: ghrelin-treated rats
[4] = system: male rats; conditions: repeated administration 20 mg/kg i.p.
[5] = system: rats; conditions: acute administration
[6] = system: female rats; conditions: pretreatment 20 mg/kg i.p., ghrelin 1 μg lateral ventricle
[7] = system: rats; conditions: acute administration, 10-40 mg/kg i.p.
[8] = system: rats; conditions: unlimited access to sucrose (30%), chronic treatment 20 mg/kg i.p.
[9] = system: extracellular dopamine in the nucleus accumbens; conditions: both 20 and 40 mg/kg, ghrelin 2 μg intraventral tegmental area

For `COCC[C@H]1CC2CN3CCc4c([nH]c5ccccc45)[C@](C(=O)OC)(C2)[C@H]13` [18-MC, 18-methoxycoronaridine], the “self-administration of morphine, cocaine, methamphetamine, nicotine, and sucrose” value [1] is listed as “reducing self-administration”, the “conditioned taste aversion to sucrose” value [2] is listed as “does not induce” and the deposition of fat [3] is listed as “no effect”. The “serum levels of glucose, triglycerides, and cholesterol” value [3] was “no effect”, the weight gain ([4]; both sucrose-consuming and control animals) was “attenuated weight gain” and the “food or fluid intake” value [4] was “without altering food or fluid intake”. For the same molecule, the “ad libitum ingestion of sucrose, saccharin, and saline” value ([5]; 10-40 mg/kg i.p.) was “decreased ad libitum ingestion”, the “consumption of water when palatable fluids were not available” value ([5]; highest dose) was “reduced consumption of water” and the “ghrelin-induced increases in sucrose (5%) intake” value [6] was “blocked ghrelin-induced increases”. For the same molecule, the “operant responding for sucrose” value [7] was “reduced operant responding for sucrose”, the consumption of sucrose [8] was “reduced consumption of sucrose” and the fat deposition [8] was “decreased fat deposition”. For the same molecule, the food intake [8] was “not altering food intake”, the “sucrose-induced increases in body weight” value [8] was “prevented sucrose-induced increases in body weight” and the “ghrelin-induced increases in extracellular dopamine in the nucleus accumbens” value [9] was “prevented”.
